As a reminder, the log P is the decadic logarithm of the partition coefficient of the neutral form, usually between octanol and water. Higher therefore signals higher lipophilicity. The logP is the decadic logarithm of the partition coefficient of the neutral form, usually between octanol and water. A high value points to a more lipophilic compound.

We go through 16 compounds from patent publication US9758485B2, “Compounds for controlling arthropods” (priority 2013, dated 2017).

The nature of data set [1]: logP determination by HPLC on a reversed-phase column (C18), EEC Directive 79/831 Annex V.A8. The data set is classed as physicochemical. Particulars: for logP^a): HPLC-MS method a), Table I-T3; for logP: HPLC, reversed-phase C18, acetonitrile/water with formic acid, 55° C.
For the next data set, the system named is Musca domestica. Description: Musca domestica test. The data set is classed as in vivo. Particulars: application rate 100 ppm; adult houseflies; kill after 2 days. The method, boiled down:
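Compound in DMSO, diluted with water, applied to a sugar-solution sponge; vessels hold 10 adult houseflies. Percent mortality scored after 2 days.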

The next data set has as its system Boophilus microplus. The data set can be described thus: Boophilus microplus - injection test. Particulars: application rate 20 μg/animal; injected into engorged adult female ticks; laying of fertile eggs, after 7 days. The data set is classed as in vivo. In a few lines: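 Compound dissolved in DMSO (10 mg per 0.5 ml, then diluted with DMSO to test concentration); 1 μl injected into the abdomen of 5 engorged adult female ticks, which are then held in a climate-controlled room. Efficacy judged after 7 days by laying of fertile eggs.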

Data set [2] concerns Ctenocephalides felis. Description: Ctenocephalides felis - oral test. The data set is classed as in vivo. Particulars: application rate 100 ppm in citrated cattle blood; adult fleas; kill after 2 days. The method, boiled down:
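About 20 unfed adult cat fleas fed through a parafilm membrane on citrated cattle blood containing compound, dosed from a DMSO stock. Kill in % scored after 2 days; 100% means all fleas dead.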

Data set [3] relates to Ctenocephalides felis. The data set can be described thus: Ctenocephalides felis - in vitro contact tests with adult cat fleas. Particulars: application rate 5 μg/cm^2 (=500 g/ha), after 48 h (dead or moribund). The data set is classed as in vivo. As to the method: Ctenocephalides felis—In Vitro Contact Tests with Adult Cat Fleas
For the coating of the test tubes, 9 mg of active ingredient are first dissolved in 1 ml of acetone p.a. and then diluted to the desired concentration with acetone p.a. 250 μl of the solution are distributed homogeneously on the inner walls and base of a 25 ml test tube by turning and rocking on an orbital shaker (rocking rotation at 30 rpm for 2 h). With 900 ppm active ingredient solution and internal surface area 44.7 cm^2, given homogeneous distribution, an area-based dose of 5 μg/cm^2 is achieved.
After the solvent has evaporated off, the tubes are populated with 5-10 adult cat fleas (Ctenocephalides felis), sealed with a perforated plastic lid and incubated in a horizontal position at room temperature and ambient humidity. After 48 h, efficacy is determined. To this end, the test tubes are stood upright and the fleas are knocked to the base of the tube. Fleas which remain motionless at the base or move in an uncoordinated manner are considered to be dead or moribund.
100% efficacy means that all the fleas were dead or moribund. 0% efficacy means that no fleas were harmed.

A further data set relates to Rhipicephalus sanguineus. The data set can be described thus: Rhipicephalus sanguineus - in vitro contact tests with adult brown dog ticks. Particulars: application rate 5 μg/cm^2, after 48 h (dead or moribund). The data set is classed as in vivo. On the procedure: Rhipicephalus sanguineus—In Vitro Contact Tests with Adult Brown Dog Ticks
For the coating of the test tubes, 9 mg of active ingredient are first dissolved in 1 ml of acetone p.a. and then diluted to the desired concentration with acetone p.a. 250 μl of the solution are distributed homogeneously on the inner walls and base of a 25 ml test tube by turning and rocking on an orbital shaker (rocking rotation at 30 rpm for 2 h). With 900 ppm active ingredient solution and internal surface 44.7 cm^2, given homogeneous distribution, an area-based dose of 5 μg/cm^2 is achieved.
After the solvent has evaporated off, the tubes are populated with 5-10 adult dog ticks (Rhipicephalus sanguineus), sealed with a perforated plastic lid and incubated in a horizontal position in the dark at room temperature and ambient humidity. After 48 h, efficacy is determined. To this end, the ticks are knocked to the floor of the tube and incubated on a hotplate at 45-50° C. for not more than 5 min. Ticks which remain motionless on the floor or move in such an uncoordinated manner that they are unable to deliberately avoid the heat by climbing upwards are considered to be dead or moribund.
An efficacy of 100% means that all the ticks were dead or moribund. 0% efficacy means that none of the ticks had been harmed.

A further data set has as its system Lucilia cuprina. The data set can be described thus: Lucilia cuprina test. The data set is classed as in vivo. Conditions: application rate 100 ppm; L1 larvae in minced horsemeat; kill after 2 days. The method, boiled down:
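About 20 L1 larvae placed on minced horsemeat treated with compound, formulated in DMSO and diluted with water to test concentration. Kill in % scored after 2 days (100% = all larvae dead, 0% = none).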

Data set [4] has as its system Boophilus microplus Parkhurst strain, SP-resistant. The data set can be described thus: Boophilus microplus - dip test. The data set is classed as in vivo. Particulars: application rate 100 ppm; dip of engorged adult female ticks; laying of fertile eggs, after 7 days. As to the method: Boophilus microplus—Dip Test
Test animals: cattle ticks (Boophilus microplus) Parkhurst strain, SP-resistant
Solvent: dimethyl sulphoxide
10 mg of active ingredient are dissolved in 0.5 ml of dimethyl sulphoxide. For the purpose of producing a suitable formulation, the active ingredient solution is diluted with water to the concentration desired in each case.
This active ingredient formulation is pipetted into tubes. 8-10 adult engorged female cattle ticks (Boophilus microplus) are transferred into a further tube with holes. The tube is immersed into the active ingredient formulation, and all the ticks are completely wetted. After the liquid has run out, the ticks are transferred on filter discs into plastic dishes and stored in a climate-controlled room.
Efficacy is assessed after 7 days by laying of fertile eggs. Eggs which are not visibly fertile are stored in a climate-controlled cabinet until the larvae hatch after about 42 days. An efficacy of 100% means that none of the ticks has laid any fertile eggs; 0% means that all the eggs are fertile.

Setting [5] is: HPLC-MS, reversed-phase column (C18).
The mark [6] stands for this setting: HPLC on reversed-phase column (C18).

Take `O=C(NC1CC1)c1cc(-c2cnn(-c3c(Cl)cc(OC(F)(F)F)cc3Cl)c2)ccc1Cl` [I-T3-88]: in data set [1], the “logP^a)” value is on record as 3.6. The efficacy in the data set on Musca domestica is reported as 80%; in the data set with Boophilus microplus it was 100%; in the data set on Ctenocephalides felis [2] it was 100%; with Ctenocephalides felis [3], 100%; in the data set with Rhipicephalus sanguineus, 80%; with Lucilia cuprina, 100%.
On to `N#CC1(NC(=O)c2cc(-c3cnn(-c4c(Br)cc(C(F)(C(F)(F)F)C(F)(F)F)cc4C(F)(F)F)c3)cnc2Cl)CC1` [I-T3-165], for which the “log P” value in data set [1] (setting [5]) came out at 3.9. In addition, the efficacy (in the data set on Musca domestica; with Boophilus microplus; in data set [4]; in the data set on Ctenocephalides felis [2]; with Ctenocephalides felis [3]; in the data set on Rhipicephalus sanguineus) was 100% each time. This compound also displayed an efficacy in the data set with Lucilia cuprina of 100%.
For the compound `CCc1cc(C(F)(C(F)(F)F)C(F)(F)F)cc(C)c1-n1cc(-c2ccc(Cl)c(C(=O)NC3(C#N)CC3)c2)cn1` [I-T3-46], in data set [1], the “logP^a)” value stood at 4.6. The efficacy in the data set on Musca domestica, in the data set with Boophilus microplus, in the data set on Ctenocephalides felis [2], in the data set with Ctenocephalides felis [3], with Rhipicephalus sanguineus and in the data set on Lucilia cuprina was 100% in each case.
For the compound `COc1ncc(-c2cnn(-c3c(C)cc(C(F)(C(F)(F)F)C(F)(F)F)cc3C)c2)cc1C(=O)NC1CC1` [I-T3-143], in data set [1] (setting [5]), the “log P” value is 4.6. Besides, the efficacy worked out at 100% in the data set with Musca domestica; 100% with Boophilus microplus; 100% with Ctenocephalides felis [2]; 100% in the data set on Ctenocephalides felis [3]; 80% in the data set with Rhipicephalus sanguineus; 100% in the data set on Lucilia cuprina.
Consider `Cc1cc(C(F)(C(F)(F)F)C(F)(F)F)cc(I)c1-n1cc(-c2ccc(Cl)c(C(=O)NC3CC3)c2)cn1` [I-T3-175], for which, in data set [1] (setting [5]), the “log P” value amounted to 4.5. The efficacy (in the data set with Musca domestica; in the data set with Boophilus microplus; in data set [4]; in the data set with Ctenocephalides felis [2]; with Ctenocephalides felis [3]; in the data set on Rhipicephalus sanguineus) was 100% throughout. The compound further showed an efficacy in the data set on Lucilia cuprina of 100%.
On to `CCc1cc(C(F)(F)C(F)(F)F)cc(C)c1-n1cc(-c2ccc(Cl)c(C(=O)NC3(C#N)CC3)c2)cn1` [I-T3-80], for which, in data set [1], the “logP^a)” value worked out at 4.2. Also, the efficacy was 100% with Musca domestica; 100% in the data set with Boophilus microplus; 80% in data set [4]; 100% in the data set with Ctenocephalides felis [2]; 100% with Ctenocephalides felis [3]; 80% in the data set with Rhipicephalus sanguineus. For the same compound, in the data set on Lucilia cuprina, the efficacy was 100%.
As for `Cc1cc(C(F)(C(F)(F)F)C(F)(F)F)cc(C(F)(F)F)c1-c1cc(-c2ccc(Cl)c(C(=O)NC3CC3)c2)on1` [I-T22-5], the lipophilicity (logP) in data set [1] worked out at 4.9. For the same compound, the efficacy (in the data set with Musca domestica; with Boophilus microplus; in data set [4]; in the data set on Ctenocephalides felis [2]; in the data set on Ctenocephalides felis [3]; with Rhipicephalus sanguineus) was 100% each time. In the data set with Lucilia cuprina, the efficacy came to 100%.
Regarding `O=C(NC1CC1)c1cc(-c2cnn(-c3c(Cl)cc(C(F)(C(F)(F)F)C(F)(F)F)cc3OC(F)F)c2)cnc1Cl` [I-T3-196], the “log P” value in data set [1] (setting [6]) stood at 3.9. Also, the efficacy with Ctenocephalides felis [3] and in the data set with Rhipicephalus sanguineus was 100% in each case.
For the compound `O=C(NC1CC1)c1cc(-c2cnn(-c3c(Br)cc(C(F)(C(F)(F)F)C(F)(F)F)cc3C(F)(F)F)c2)cnc1Cl` [I-T3-160], the “log P” value in data set [1] (setting [5]) amounted to 4.0. Besides, the efficacy (with Musca domestica; in the data set on Boophilus microplus; in data set [4]; with Ctenocephalides felis [2]; in the data set with Ctenocephalides felis [3]; in the data set on Rhipicephalus sanguineus) was 100% each time. Besides, the efficacy in the data set on Lucilia cuprina is listed as 100%.
With `O=C(NC1CC1)c1cc(-c2cnn(-c3ccc(C(F)(C(F)(F)F)C(F)(F)F)cc3C(F)(F)F)c2)ccc1Cl` [I-T3-52], the “logP^a)” value in data set [1] is given as 4.3. Besides, the efficacy in the data set with Musca domestica, with Boophilus microplus, with Ctenocephalides felis [2], in the data set on Rhipicephalus sanguineus and in the data set with Lucilia cuprina was 100% throughout.
Take `Cc1cc(C(F)(C(F)(F)F)C(F)(F)F)cc(C(F)(F)F)c1-c1cc(-c2cnc(Cl)c(C(=O)NC3(C#N)CC3)c2)on1` [I-T22-4]: the lipophilicity (logP) in data set [1] stood at 4.4. For the same compound, the efficacy (in the data set on Boophilus microplus; in data set [4]; with Ctenocephalides felis [2]; in the data set with Rhipicephalus sanguineus) was 100% throughout.
`Cc1cc(C(F)(C(F)(F)F)C(F)(F)F)cc(C)c1-c1cnn(-c2ccc(Cl)c(C(=O)NC3(C#N)CC3)c2)c1` [I-T4-2] displayed a logP in data set [1] of 4.6. The efficacy in the data set with Musca domestica, in the data set on Boophilus microplus, in the data set with Ctenocephalides felis [2], in the data set on Ctenocephalides felis [3], in the data set with Rhipicephalus sanguineus and with Lucilia cuprina was 100% each time.
For `O=C(NC1CC1)c1cc(-c2cnn(-c3ccc(OC(F)(F)F)cc3Cl)c2)ccc1Cl` [I-T3-90], the “logP^a)” value in data set [1] was determined as 3.6. Moreover, the efficacy is 90% with Musca domestica; 100% in the data set on Boophilus microplus; 100% with Ctenocephalides felis [2]; 100% in the data set with Rhipicephalus sanguineus; 100% in the data set on Lucilia cuprina.
`Cc1cc(C(F)(C(F)(F)F)C(F)(F)F)cc(C(F)(F)F)c1-c1cc(-c2cnc(Cl)c(C(=O)NC3CC3)c2)on1` [I-T22-6] showed a logP in data set [1] of 4.5. Besides, the efficacy in the data set with Musca domestica was found to be 90%; in the data set on Boophilus microplus, 100%; in data set [4], 100%; in the data set with Ctenocephalides felis [2] it was 95%; in the data set on Rhipicephalus sanguineus, 100%; with Lucilia cuprina, 100%.
On to `O=C(NC1CC1)c1cc(-c2cnn(-c3c(Cl)cc(C(F)(C(F)(F)F)C(F)(F)F)cc3OC(F)(F)F)c2)cnc1Cl` [I-T3-189], for which the log partition coefficient (log P) in data set [1] (setting [6]) stood at 4.3. Besides, the efficacy in the data set on Musca domestica, with Ctenocephalides felis [2], with Ctenocephalides felis [3], with Rhipicephalus sanguineus and with Lucilia cuprina was 100% in each case.
`Cc1cc(C(F)(C(F)(F)F)C(F)(F)F)cc(I)c1-n1cc(-c2ccc(Cl)c(C(=O)NC3(C#N)CC3)c2)cn1` [I-T3-176]: in data set [1] (setting [5]), the log partition coefficient (log P) is listed as 4.4. Moreover, the efficacy (in the data set with Musca domestica; in the data set on Boophilus microplus; in data set [4]; in the data set with Ctenocephalides felis [2]; in the data set on Ctenocephalides felis [3]; in the data set on Rhipicephalus sanguineus) was 100% throughout. Besides, the efficacy in the data set on Lucilia cuprina was determined as 100%.
